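The compound was tested at five concentrations on cells cultured in 96-well plates, with a 48-hour exposure period. The concentration for 50% growth inhibition is given as GI50. TGI denotes the concentration required for complete inhibition of growth.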
Columns and labels:
Assay in all cases: growth of human tumour cells (NCI), 48 h
SF-295 CNS = tested on: SF-295 CNS
NCI/ADR-RES ovarian = tested on: NCI/ADR-RES ovarian
HCT-15 colon = tested on: HCT-15 colon
SK-OV-3 ovarian = tested on: SK-OV-3 ovarian
CCRF-CEM leukemia = tested on: CCRF-CEM leukemia
A549 NSCLC = tested on: A549 NSCLC
SK-MEL-2 melanoma = tested on: SK-MEL-2 melanoma
K-562 leukemia = tested on: K-562 leukemia
HT29 colon = tested on: HT29 colon
MDA-MB-231 breast = tested on: MDA-MB-231 breast
SNB-75 CNS = tested on: SNB-75 CNS
SNB-19 CNS = tested on: SNB-19 CNS
U251 CNS = tested on: U251 CNS
LOX IMVI melanoma = tested on: LOX IMVI melanoma
SF-539 CNS = tested on: SF-539 CNS
RPMI-8226 leukemia = tested on: RPMI-8226 leukemia
CAKI-1 renal = tested on: CAKI-1 renal
PC-3 prostate = tested on: PC-3 prostate
HL-60(TB) leukemia = tested on: HL-60(TB) leukemia
UACC-257 melanoma = tested on: UACC-257 melanoma
NCI-H522 lung = tested on: NCI-H522 lung
SF-268 CNS = tested on: SF-268 CNS
OVCAR-5 ovarian = tested on: OVCAR-5 ovarian
A498 renal = tested on: A498 renal
SN12C renal = tested on: SN12C renal
MOLT-4 leukemia = tested on: MOLT-4 leukemia
HOP-62 NSCLC = tested on: HOP-62 NSCLC
NCI-H226 lung = tested on: NCI-H226 lung
SK-MEL-28 melanoma = tested on: SK-MEL-28 melanoma
UO-31 renal = tested on: UO-31 renal
HCC-2998 colon = tested on: HCC-2998 colon
HOP-92 NSCLC = tested on: HOP-92 NSCLC
UACC-62 melanoma = tested on: UACC-62 melanoma
OVCAR-3 ovarian = tested on: OVCAR-3 ovarian
DU-145 prostate = tested on: DU-145 prostate
RXF 393 renal = tested on: RXF 393 renal
TK-10 renal = tested on: TK-10 renal
KM12 colon = tested on: KM12 colon
IGROV1 ovarian = tested on: IGROV1 ovarian
MCF7 breast = tested on: MCF7 breast
T-47D breast = tested on: T-47D breast
BT-549 breast = tested on: BT-549 breast
SK-MEL-5 melanoma = tested on: SK-MEL-5 melanoma
HS 578T breast = tested on: HS 578T breast
OVCAR-8 ovarian = tested on: OVCAR-8 ovarian
M14 melanoma = tested on: M14 melanoma
SW-620 colon = tested on: SW-620 colon
ACHN renal = tested on: ACHN renal
COLO 205 colon = tested on: COLO 205 colon
NCI-H460 lung = tested on: NCI-H460 lung
MALME-3M melanoma = tested on: MALME-3M melanoma
786-0 renal = tested on: 786-0 renal
MDA-MB-435 = tested on: MDA-MB-435
OVCAR-4 ovarian = tested on: OVCAR-4 ovarian
HCT-116 colon = tested on: HCT-116 colon
NCI-H23 lung = tested on: NCI-H23 lung
EKVX NSCLC = tested on: EKVX NSCLC

N#CC(C#N)=C/C=C(\Sc1ccc(F)c(Cl)c1)c1ccc(Cl)cc1
GI50 (SF-295 CNS): 10.7 µM | TGI (SF-295 CNS): > 53.2 µM | GI50 (NCI/ADR-RES ovarian): 1.11 µM | TGI (NCI/ADR-RES ovarian): 4.82 µM | GI50 (HCT-15 colon): 0.601 µM | TGI (HCT-15 colon): 2.01 µM | GI50 (SK-OV-3 ovarian): 15.8 µM | TGI (SK-OV-3 ovarian): > 41.1 µM | GI50 (CCRF-CEM leukemia): 0.193 µM | TGI (CCRF-CEM leukemia): 0.539 µM | GI50 (A549 NSCLC): 3.29 µM | TGI (A549 NSCLC): 12.7 µM | GI50 (SK-MEL-2 melanoma): 7.01 µM | TGI (SK-MEL-2 melanoma): 23.9 µM | GI50 (K-562 leukemia): 0.396 µM | TGI (K-562 leukemia): 12.6 µM | GI50 (HT29 colon): 0.545 µM | TGI (HT29 colon): 2.24 µM | GI50 (MDA-MB-231 breast): 0.671 µM | TGI (MDA-MB-231 breast): 2.02 µM | GI50 (SNB-75 CNS): 5.62 µM | TGI (SNB-75 CNS): 16 µM | GI50 (SNB-19 CNS): 5.48 µM | TGI (SNB-19 CNS): 28.2 µM | GI50 (U251 CNS): 0.72 µM | TGI (U251 CNS): 2.61 µM | GI50 (LOX IMVI melanoma): 0.302 µM | TGI (LOX IMVI melanoma): 1.12 µM | GI50 (SF-539 CNS): 2.19 µM | TGI (SF-539 CNS): 6.58 µM | GI50 (RPMI-8226 leukemia): 0.271 µM | TGI (RPMI-8226 leukemia): 0.967 µM | GI50 (CAKI-1 renal): 1.77 µM | TGI (CAKI-1 renal): 12.1 µM | GI50 (PC-3 prostate): 0.787 µM | TGI (PC-3 prostate): 7.1 µM | GI50 (HL-60(TB) leukemia): 0.317 µM | TGI (HL-60(TB) leukemia): 4.48 µM | GI50 (UACC-257 melanoma): 6.68 µM | TGI (UACC-257 melanoma): 19.5 µM | GI50 (NCI-H522 lung): 1.8 µM | TGI (NCI-H522 lung): 7.71 µM | GI50 (SF-268 CNS): 2.52 µM | TGI (SF-268 CNS): 17.8 µM | GI50 (OVCAR-5 ovarian): 2.93 µM | TGI (OVCAR-5 ovarian): 24.6 µM | GI50 (A498 renal): 16 µM | TGI (A498 renal): 32.4 µM | GI50 (SN12C renal): 0.669 µM | TGI (SN12C renal): 1.93 µM | GI50 (MOLT-4 leukemia): 0.335 µM | TGI (MOLT-4 leukemia): 2.74 µM | GI50 (HOP-62 NSCLC): 1.52 µM | TGI (HOP-62 NSCLC): 5.78 µM | GI50 (NCI-H226 lung): 2.05 µM | TGI (NCI-H226 lung): 6.25 µM | TGI (SK-MEL-28 melanoma): 3.53 µM | GI50 (UO-31 renal): 0.889 µM | TGI (UO-31 renal): 2.86 µM | GI50 (HCC-2998 colon): 5.71 µM | TGI (HCC-2998 colon): 17.8 µM | GI50 (HOP-92 NSCLC): 0.947 µM | TGI (HOP-92 NSCLC): 6.91 µM | GI50 (UACC-62 melanoma): 2.43 µM | TGI (UACC-62 melanoma): 11.5 µM | GI50 (OVCAR-3 ovarian): 3.99 µM | TGI (OVCAR-3 ovarian): 16.3 µM | GI50 (DU-145 prostate): 1.12 µM | TGI (DU-145 prostate): 6.77 µM | GI50 (RXF 393 renal): 0.663 µM | TGI (RXF 393 renal): 2.12 µM | GI50 (TK-10 renal): 1.62 µM | TGI (TK-10 renal): 6.57 µM | GI50 (KM12 colon): 2.74 µM | TGI (KM12 colon): 13.1 µM | GI50 (IGROV1 ovarian): 1.09 µM | TGI (IGROV1 ovarian): 4.29 µM | GI50 (MCF7 breast): 1.25 µM | TGI (MCF7 breast): 26.7 µM | GI50 (T-47D breast): 11.6 µM | TGI (T-47D breast): 46.3 µM | GI50 (BT-549 breast): 3.09 µM | TGI (BT-549 breast): 8.84 µM | GI50 (SK-MEL-5 melanoma): 7.22 µM | TGI (SK-MEL-5 melanoma): 19.4 µM | GI50 (HS 578T breast): 4.78 µM | TGI (HS 578T breast): 43.5 µM | GI50 (OVCAR-8 ovarian): 0.862 µM | TGI (OVCAR-8 ovarian): 2.42 µM | GI50 (M14 melanoma): 0.807 µM | TGI (M14 melanoma): 2.53 µM | GI50 (SW-620 colon): 0.494 µM | TGI (SW-620 colon): 5.74 µM | GI50 (ACHN renal): 0.795 µM | TGI (ACHN renal): 3.34 µM | GI50 (COLO 205 colon): 2.58 µM | TGI (COLO 205 colon): > 21.3 µM | GI50 (NCI-H460 lung): 5.24 µM | TGI (NCI-H460 lung): 22.7 µM | GI50 (MALME-3M melanoma): 3.26 µM | TGI (MALME-3M melanoma): 20.4 µM | GI50 (786-0 renal): 0.95 µM | TGI (786-0 renal): 2.49 µM | GI50 (MDA-MB-435): 1.25 µM | TGI (MDA-MB-435): 4.29 µM | GI50 (OVCAR-4 ovarian): 0.918 µM | TGI (OVCAR-4 ovarian): 7.43 µM | GI50 (HCT-116 colon): 0.3 µM | TGI (HCT-116 colon): 0.799 µM | GI50 (NCI-H23 lung): 1.14 µM | TGI (NCI-H23 lung): 5.64 µM | GI50 (EKVX NSCLC): 14.5 µM | TGI (EKVX NSCLC): 39.5 µM

Source: PubChem BioAssay (NCI)
